The nature of data set [1]: Brain penetration (Kp,uu) in CD-1 mice, with plasma and brain tissue binding by equilibrium dialysis. The data set is classed as in vivo. The settings on record: mouse, brain and plasma (unbound), male CD-1 mice, single IV bolus 1 mg/kg. The protocol: The compounds disclosed herein were tested on CD-1 mice for brain penetration (Kp, uu) according to the following procedures.
Nine male CD-1 mice were administered TEST COMPOUND by single intravenous bolus administration at 1 mg/kg. The vehicle used for IV study was 5% DMSO, 5% solutol, 20% PEG300 and 70% water. The detailed dosing and sampling regimens are described in the following tables.
1.0 mg of test compound was accurately weighed into a glass vial, and slowly added with 104 μL of DMSO and vortexed for 1 min. Then 104 μL of solutol was added and vortexed for 1 min. Then 415 μL of PEG300 was added and vortexed for 1 min. Then 1000 μL of water was added and vortexed for 1 min. Finally, 451 μL of water was added and vortexed for 1 min to get a clear solution.
The body weights were in the range from 28.81 to 31.25 g for males on the first dosing day. All animals received a single intravenous bolus administration of TEST COMPOUND from the tail vein.
Each blood collection (about 0.06 mL per time point) was performed from saphenous vein of each animal into pre-chilled commercial K2-EDTA tubes as anti-coagulant and placed on wet ice until centrifugation.
Plasma samples were then prepared by centrifuging the blood samples at approximately 4° C., 3200×g for 10 minutes. All plasma samples were then quickly frozen over dry ice and kept at −60° C. or lower until LC-MS/MS analysis.
Brain tissue was homogenized using homogenizing buffer (15 mM PBS (pH7.4): MeOH=2:1) at the ratio of 1:9 (1 g tissue with 9 mL buffer, the dilution ratio is 10). The tissue homogenate was kept at −60° C. or lower until LC-MS/MS analysis.
The concentrations of TEST COMPOUND in plasma and brain were determined by using an LC-MS/MS method.
The plasma and brain concentration of TEST COMPOUND in study animals was subjected to a non-compartmental pharmacokinetic analysis by using the Phoenix WinNonlin software program (version 6.3 or above, Pharsight). The linear/log trapezoidal rule was applied in obtaining the PK parameters.
Individual plasma and brain concentration values that were below the lower limit of quantitation (LLOQ) were excluded from the PK parameter calculation. The nominal dose levels and nominal sampling times were used in the calculation of all pharmacokinetic parameters.
Mouse Kp, uu=(% free in mouse brain*concentration in mouse brain)/(% free in mouse plasma*concentration in mouse plasma)
The dialysis apparatus was assembled according to the manufacturer's instruction. Each Cell was filled with 120 μL of spiked plasma sample and dialyzed against equal volume of dialysis buffer (PBS). The assay was performed in duplicate. The dialysis plates were sealed and incubated in an incubator at 37° C. with 5% CO2 and rotated at 100 rpm for 6 hours. At the end of incubation, the seals were removed and 50 μL of samples from both buffer and plasma chambers were transferred to a 96-well plate.
All calculations were carried out using Microsoft Excel. The concentrations of test compound and control compound in the buffer and plasma chambers were determined from peak area ratios (PAR) of analyte to internal standard. Protein binding (% unbound and % bound) and recovery (% recovery) of test and control compounds was calculated as follows:
• 1. Thawing of the frozen brain (stored at −80° C.) • Frozen brain tissue was thawed at room temperature in a bath. Only brain tissue was used that was thawed no more than once. • 2. Preparation of brain tissue homogenate • Brain tissue homogenate was prepared by diluting one quantity (g) of the whole brain tissue with three volumes (mL) of buffer (PBS, pH 7.4) and homogenizing the mixture using a tissue homogenizer. Brain tissue homogenate was frozen at −80° C. for later use/comparison. • 3. Preparation of working solutions • The working solutions of test compound and the control compound propranolol were prepared in dimethyl sulfoxide (DMSO) at the concentration of 200 μM. […]
For orientation: In equilibrium dialysis only unbound substance equilibrates across the membrane.

Another data set has as its system Caco-2 cells. The data set is described as follows: Caco-2 bidirectional permeability. The data set is classed as in vitro ADME. To be noted: for Caco-2 A2B (10^−6 cm/s): A to B; for Caco-2 A2B (10^−6 cm/s) / Caco-2 B2A (10^−6 cm/s): HBSS pH 7.4, 2 hours; for Caco-2 B2A (10^−6 cm/s): B to A; for Caco-2 ER: Efflux Ratio=Papp (BA)/Papp (AB). In a few lines:
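Caco-2 monolayers grown 21–28 days on PET inserts were run in duplicate in HBSS with 10 mM HEPES, pH 7.4. Compound was tested in both directions at […] for 2 h at 37 °C and quantified by LC-MS/MS. Papp, % recovery and efflux ratio (B-A/A-B) were calculated, with lucifer yellow checking monolayer integrity.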

In data set [2] the target is T1, wt human LRRK2, catalytic site (Homo sapiens, UniProt Q5S007).
T1 construct: wt human LRRK2, catalytic site, catalytic site (ThermoFisher/USA); purchased ThermoFisher
In words: TR-FRET LanthaScreen Tb Kinase Activity Assay, LRRK2 kinase inhibition. To be noted: 2 nM wt human LRRK2, 400 nM peptide, 38 μM ATP. The data set is classed as biochemical. An outline of the steps: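 TR-FRET LanthaScreen format: 2 nM wt human LRRK2 catalytic domain with 400 nM fluorescein-ERM (LRRKtide) and 38 μM ATP in Kinase Buffer A, after 15 min compound preincubation. Reaction 120 min at RT, then EDTA plus Tb-anti-pLRRKtide antibody for 60 min; emission ratios analysed per kit protocol.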
Background: TR-FRET usually uses a lanthanide donor and a delayed reading to cut background.

A short description of data set [3]: Human liver microsomal clearance (hLM Cl). The data set is classed as in vitro ADME. The settings on record: cells marked *. On the technique in general: Liver microsomes are vesicles of endoplasmic reticulum, rich in cytochrome P450 enzymes.

The structures appear in SMILES notation. Where only a bound is given, the exact number is not on record here.

T1 sequence (Q5S007 1879-2138 limits assumed): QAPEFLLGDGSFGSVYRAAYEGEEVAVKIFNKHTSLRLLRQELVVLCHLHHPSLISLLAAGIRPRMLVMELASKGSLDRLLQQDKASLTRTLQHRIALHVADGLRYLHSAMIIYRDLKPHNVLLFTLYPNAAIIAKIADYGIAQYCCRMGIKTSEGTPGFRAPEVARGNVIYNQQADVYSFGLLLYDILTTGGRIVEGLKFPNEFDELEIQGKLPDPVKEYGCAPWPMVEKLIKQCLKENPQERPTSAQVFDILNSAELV

`Cc1n[nH]c2c1N=C(c1c(F)cccc1F)Nc1c-2cc(N2CCN(C)[C@@H](C(F)(F)F)C2)nc1C` (single isomer, unassigned) [Example 37] returned a Kp uu in data set [1] of 0.2 to 0.4. Further, in the data set on Caco-2 cells, the “Caco-2 A2B (10^−6 cm/s)” value was “H (H (High permeability)”: A2B (B2A)>5)”, the “Caco-2 B2A (10^−6 cm/s)” value is “H (H (High permeability)”: A2B (B2A)>5)” and the “Caco-2 ER” value was “N (N (Non-substrate)”: ER<2.5)”. In data set [2], this molecule registered an IC50 below 2 nM. Also, the “hLM Cl (mL/min/kg)” value in data set [3] is “I* (I (Intermediate C1)”: 6.3 mL/min/kg≤Hep Cl≤14.7 mL/min/kg)”.

As to `Cc1n[nH]c2c1N=C(c1c(F)cccc1F)Nc1c-2cc(N2CCC[C@@]3(CCOC3)C2)nc1C` (single isomer, unassigned) [Example 49], the Kp uu in data set [1] was 0.2 to 0.4. Also, in the data set on Caco-2 cells, the “Caco-2 A2B (10^−6 cm/s)” value is “H (H (High permeability)”: A2B (B2A)>5)”, the “Caco-2 B2A (10^−6 cm/s)” value was “H (H (High permeability)”: A2B (B2A)>5)” and the “Caco-2 ER” value is “N (N (Non-substrate)”: ER<2.5)”. Moreover, the IC50 in data set [2] was below 2 nM. Also, in data set [3], the “hLM Cl (mL/min/kg)” value is reported as “I* (I (Intermediate C1)”: 6.3 mL/min/kg≤Hep Cl≤14.7 mL/min/kg)”.

As for `Cc1n[nH]c2c1N=C(c1c(F)cccc1F)Nc1c-2cc(N2CCN(CCF)[C@@H](C)C2)nc1C` [Example 21, (S)-5-(2,6-difluorophenyl)-9-(4-(2-fluoroethyl)-3-methylpiperazin-1-yl)-3,7-dimethyl-1,6-dihydropyrazolo[4,3-d]pyrido[4,3-f][1,3]diazepine], the Kp uu in data set [1] was in the range of 0.2 to 0.4. In the data set with Caco-2 cells, the “Caco-2 A2B (10^−6 cm/s)” value was “H (H (High permeability)”: A2B (B2A)>5)”, the “Caco-2 B2A (10^−6 cm/s)” value is reported as “H (H (High permeability)”: A2B (B2A)>5)” and the “Caco-2 ER” value was “N (N (Non-substrate)”: ER<2.5)”. This molecule also had an IC50 in data set [2] below 2 nM. The “hLM Cl (mL/min/kg)” value in data set [3] is given as “L* (L (Low C1)”: Hep Cl<6.3 mL/min/kg)”.

In turn, `Cc1n[nH]c2c1N=C(c1c(F)cccc1F)Nc1ccc(N3CCN(C)C(C(F)(F)F)C3)cc1-2` (stereo not drawn) [Example 6, 5-(2,6-difluorophenyl)-3-methyl-9-[4-methyl-3-(trifluoromethyl)piperazin-1-yl]-1,6-dihydropyrazolo[4,3-d][1,3]benzodiazepine] displayed a Kp uu in data set [1] of 0.2 to 0.4. Further, in the data set on Caco-2 cells, the “Caco-2 A2B (10^−6 cm/s)” value is reported as “H (H (High permeability)”: A2B (B2A)>5)”, the “Caco-2 B2A (10^−6 cm/s)” value was “H (H (High permeability)”: A2B (B2A)>5)” and the “Caco-2 ER” value is “N (N (Non-substrate)”: ER<2.5)”. The molecule further came in with a half-maximal inhibitory concentration (IC50) in data set [2] below 2 nM. In addition, the “hLM Cl (mL/min/kg)” value in data set [3] is given as “L* (L (Low C1)”: Hep Cl<6.3 mL/min/kg)”.

Regarding `Cc1n[nH]c2c1N=C(c1c(F)cccc1F)Nc1c-2cc(N2CC3CC(C2)O3)nc1C` [Example 41, 3-(5-(2,6-difluorophenyl)-3,7-dimethyl-1,6-dihydropyrazolo[4,3-d]pyrido[4,3-f][1,3]diazepin-9-yl)-6-oxa-3-azabicyclo[3.1.1]heptane], in the data set on Caco-2 cells, the “Caco-2 A2B (10^−6 cm/s)” value is on record as “H (H (High permeability)”: A2B (B2A)>5)”, the “Caco-2 B2A (10^−6 cm/s)” value is “H (H (High permeability)”: A2B (B2A)>5)” and the “Caco-2 ER” value is listed as “N (N (Non-substrate)”: ER<2.5)”. In data set [2], the IC50 was below 2 nM. Further, the “hLM Cl (mL/min/kg)” value in data set [3] was “I* (I (Intermediate C1)”: 6.3 mL/min/kg≤Hep Cl≤14.7 mL/min/kg)”.

Take `[2H]C([2H])([2H])c1n[nH]c2c1N=C(c1c(F)cccc1F)Nc1ccc(N3CCO[C@H](C)C3)cc1-2` [Example 11, (2R)-4-[5-(2,6-difluorophenyl)-3-(trideuteriomethyl)-1,6-dihydropyrazolo[4,3-d][1,3]benzodiazepin-9-yl]-2-methyl-morpholine]: the Kp uu in data set [1] lay within 0.2 to 0.4. Also, in the data set with Caco-2 cells, the “Caco-2 A2B (10^−6 cm/s)” value is listed as “H (H (High permeability)”: A2B (B2A)>5)”, the “Caco-2 B2A (10^−6 cm/s)” value is “H (H (High permeability)”: A2B (B2A)>5)” and the “Caco-2 ER” value is recorded as “N (N (Non-substrate)”: ER<2.5)”. This molecule displayed an IC50 in data set [2] of 2 to 100 nM. For the same molecule, the “hLM Cl (mL/min/kg)” value in data set [3] is given as “L* (L (Low C1)”: Hep Cl<6.3 mL/min/kg)”.

Turning to `Cc1n[nH]c2c1N=C(c1c(F)cccc1F)Nc1c-2cc(N2CCC[C@@]3(CCOC3)C2)nc1C` (single isomer, unassigned) [Example 50], in the data set with Caco-2 cells, the “Caco-2 A2B (10^−6 cm/s)” value is on record as “H (H (High permeability)”: A2B (B2A)>5)”, the “Caco-2 B2A (10^−6 cm/s)” value was “H (H (High permeability)”: A2B (B2A)>5)” and the “Caco-2 ER” value is given as “N (N (Non-substrate)”: ER<2.5)”. The same molecule registered an IC50 in data set [2] below 2 nM. In data set [3], the “hLM Cl (mL/min/kg)” value is “I* (I (Intermediate C1)”: 6.3 mL/min/kg≤Hep Cl≤14.7 mL/min/kg)”.

As to `Cc1n[nH]c2c1N=C(c1c(F)cccc1F)Nc1c-2cc(N2CCOCC2)nc1C(F)(F)F` [Example 4, 4-[8-(2,6-difluorophenyl)-5-methyl-11-(trifluoromethyl)-3,4,7,9,12-pentazatricyclo[8.4.0.02,6]tetradeca-1(10),2(6),4,7,11,13-hexaen-13-yl]morpholine], in the data set on Caco-2 cells, the “Caco-2 A2B (10^−6 cm/s)” value was “M (M (Moderate permeability)”: 1≤A2B (B2A)≤5)”, the “Caco-2 B2A (10^−6 cm/s)” value is recorded as “L (L (Low permeability)”: A2B(B2A)<1)” and the “Caco-2 ER” value was “N (N (Non-substrate)”: ER<2.5)”. For the same molecule, the IC50 in data set [2] lay in the range of 2 to 100 nM. The “hLM Cl (mL/min/kg)” value in data set [3] is reported as “I* (I (Intermediate C1)”: 6.3 mL/min/kg≤Hep Cl≤14.7 mL/min/kg)”.

The term IC50 denotes the concentration that inhibits the measured activity by half.

(Values after patent publication US20240208972A1, “LRRK2 INHIBITORS AND USES THEREOF” (NEURON23, INC., priority 2022, published 2024).)
